Reference: patent publication US8598182B2, “Insecticidal pyrimidinyl aryl hyrdrazones” (Dow AgroSciences, LLC., priority 2007, dated 2013)

Experiments:
[1] = system: Corn Earworm (Helicoverpa zea); experiment: Insecticidal diet-surface test for corn earworm; format: in vivo; conditions: second-instar corn earworm, 50 ug/cm2 on diet surface, 5 days after treatment, dead insects of 8
[2] = system: Beet Armyworm (Spodoptera exigua); experiment: Insecticidal diet-surface test for beet armyworm; format: in vivo; conditions: second-instar beet armyworm, 50 ug/cm2 on diet surface, 5 days after treatment, dead insects of 8

SMILES | HELIZE 50 (ug/cm2), percent control [1] | LAPHEG 50 (ug/cm2), percent control [2]
Fc1ccc(Nc2ccnc(N/N=C/c3ccc(OC(F)(F)F)cc3)n2)cc1C(F)(F)F [Compound 80] | 100% | 100%
Fc1ccc(Nc2cc(N/N=C/c3ccc(OC(F)(F)C(F)F)cc3)nc(NCc3ccc(Cl)nc3)n2)cc1C(F)(F)F [Compound 81] | 100% | 0%
Fc1ccc(Nc2nc(Cl)nc(N/N=C/c3ccc(OC(F)(F)F)nc3)c2Cl)cc1C(F)(F)F [Compound 82] | 100% | 100%
FC(F)(F)Oc1ccc(/C=N/Nc2cc(Nc3cc(Cl)cc(C(F)(F)F)c3)nc(Cl)n2)cc1 [Compound 83] | 100% | 100%
FC(F)C(F)(F)Oc1ccc(/C=N/Nc2cc(Nc3cc(Cl)cc(C(F)(F)F)c3)nc(Cl)n2)cc1 [Compound 84] | 100% | 100%
Fc1ccc(Nc2cc(NN=Cc3ccc(OC(F)(F)F)cc3)ncn2)cc1C(F)(F)F [Compound 85] | 100% | 100%
Fc1ccc(Nc2cc(N/N=C/c3ccc(C(F)(F)F)nc3)ncn2)cc1C(F)(F)F [Compound 86] | 100% | 100%
